Reference: patent US10357477B2, “Anticancer compounds” (REGENTS OF THE UNIVERSITY OF MINNESOTA, priority 2016, dated 2019)

Key:
MIA PaCa-2 cells = experiment: Cell viability assay (MTT) in MIA PaCa-2 cells; format: cell-based; details: Homo sapiens, antiproliferative activity, 72 h
Procedure: MIA PaCa-2 cells (CRL-1420, ATCC) were maintained in DMEM media supplemented with 10% FBS, 2.5% HS, 1% GlutaMAX, 1% sodium pyruvate, 100 U/mL penicillin, and 100 μg/mL streptomycin. Cell culture media and additives were purchased from Gibco. Cells were plated in 96-well plates at |1−2.5|×10^4 cells per well in the DMEM growth media. One microliter of a 2-fold serially diluted compound solution in DMSO (Sigma) starting at 20 mM (100 μM final concentration) was added to each well. The final volume in each well was 200 μL, yielding a final DMSO concentration of 0.5%. Control wells contained 0.5% DMSO (100% viability) or 25% DMSO (background) and all reactions were done in triplicate. The plate was incubated for 72 h at 37° C. in a 5% CO2/95% air humidified atmosphere.
Measurement of cell viability was carried out using a modified method of Mosmann based on 3-(4,5-dimethylthiazol-2-yl)-2,5-diphenyltetrazolium bromide (MTT, Sigma). MTT solution was prepared fresh at 1 mg/mL in serum-free and phenol red-free RPMI 1640 media. After 200 μL of MTT solution was added to each well, the plate was incubated as described above for 3 h. The MTT solution was removed, and the formazan crystals were solubilized with 200 μL of isopropanol. The plate was read on a SpectraMax i3 spectrophotometer (Molecular Devices) at 570 nm for formazan and 650 nm for background subtraction. EC50 values were calculated by fitting the data in GraphPad Prism software. EC50 values were determined in triplicate.

Panc-1 cells = experiment: Cell viability assay (MTT) in Panc-1 cells; format: cell-based; details: Homo sapiens, antiproliferative activity, 72 h
Procedure: Panc-1 cells are maintained in RPMI 1640 (Invitrogen 11875) media supplemented with 10% FBS, 1% Penicillin/Streptomycin and 1% Glutamax-1. Cells were plated in 96-well plates at 25×10^4 cells/ml. After 24 hours, compounds were added at 9, 3× dilutions in triplicate from 100 uM final concentration in the appropriate growth media. Plates were incubated for 72 hours at 37° C. in a 5% CO2/95% air humidified atmosphere after which time the media was removed and MTT was added in RPMI phenol red free media. The MTT was removed after 3 hours and formazan crystals were solubilized with 200 μL of isopropanol. Plates were read on a Molecular Devices SpectraMax i3 spectrophotometer at 570 nm for formazan and 690 nm for background subtraction. EC50 values were calculated by fitting the data in GraphPad Prism software.

Compound | EC50 (MIA PaCa-2 cells) [µM] | EC50 (Panc-1 cells) [µM]
CC(=O)Nc1cccc(Cn2nc(C)c(NC(=O)c3ccc(COc4ccccc4)cc3)c2C)c1 [Compound A7b, N-(1-(3-Acetamidobenzyl)-3,5-dimethyl-1H-pyrazol-4-yl)-4-(phenoxymethyl)benzamide] | 2.7 | 12
CC(=O)Nc1ccccc1Cn1nc(C)c(NC(=O)c2ccc(COc3ccccc3)cc2)c1C [Compound A7c, N-(1-(2-Acetamidobenzyl)-3,5-dimethyl-1H-pyrazol-4-yl)-4-(phenoxymethyl)benzamide] | 2.6 | 31
Cc1nn(Cc2ccc([N+](=O)[O-])cc2)c(C)c1NC(=O)c1ccc(COc2ccccc2)cc1 [Compound A5a, N-(3,5-Dimethyl-1-(4-nitrobenzyl)-1H-pyrazol-4-yl)-4-(phenoxymethyl)benzamide] | 7.8 | 23
CNC(=O)c1cccc(Cn2nc(C)c(NC(=O)c3ccc(OCc4ccccc4)cc3)c2C)c1 [Compound C5, 3-((4-(4-(Benzyloxy)benzamido)-3,5-dimethyl-1H-pyrazol-1-yl)methyl)-N-methylbenzamide] | 8.2 | 6
Cc1nn(Cc2ccccc2N)c(C)c1NC(=O)c1ccc(COc2ccccc2)cc1 [Compound A6c, N-(1-(2-Aminobenzyl)-3,5-dimethyl-1H-pyrazol-4-yl)-4-(phenoxymethyl)benzamide] | 11 | 22
Cc1nn(Cc2ccccc2[N+](=O)[O-])c(C)c1NC(=O)c1ccc(COc2ccccc2)cc1 [Compound A5c, N-(3,5-Dimethyl-1-(2-nitrobenzyl)-1H-pyrazol-4-yl)-4-(phenoxymethyl)benzamide] | 6 | 5.3
CC(=O)Nc1ccc(Cn2nc(C)c(NC(=O)c3ccc(COc4ccccc4)cc3)c2C)cc1 [Compound A7a, N-(1-(4-Acetamidobenzyl)-3,5-dimethyl-1H-pyrazol-4-yl)-4-(phenoxymethyl)benzamide] | 50 | > 100
Cc1nn(Cc2cccc(C(=O)NC(C)C)c2)c(C)c1NC(=O)c1ccc(COc2ccccc2)cc1 [Compound A4c, 3-((3,5-Dimethyl-4-(4-(phenoxymethyl)benzamido)-1H-pyrazol-1-yl)methyl)-N-isopropylbenzamide] | 8.9 | 1.4
CNC(=O)c1ccccc1Cn1nc(C)c(NC(=O)c2ccc(COc3ccccc3)cc2)c1C [Compound A3c, 2-((3,5-Dimethyl-4-(4-(phenoxymethyl)benzamido)-1H-pyrazol-1-yl)methyl)-N-methylbenzamide] | 7.7 | 14
CNC(=O)c1cccc(Cn2nc(C)c(NC(=O)c3ccc(CCc4ccccc4)cc3)c2C)c1 [Compound C3, 3-((3,5-Dimethyl-4-(4-phenethylbenzamido)-1H-pyrazol-1-yl)methyl)-N-methylbenzamide] | 5.4 | 0.76
CNC(=O)c1cccc(Cn2nc(C)c(NC(=O)c3ccc(C(=O)Nc4ccccc4)cc3)c2C)c1 [Compound C4, N^1-(3,5-Dimethyl-1-(3-(methylcarbamoyl)benzyl)-1H-pyrazol-4-yl)-N^4-phenylterephthalamide] | 69 | 51
Cc1nn(Cc2ccc(C(N)=O)cc2)c(C)c1NC(=O)c1ccc(COc2ccccc2)cc1 [Compound A2a, N-(1-(4-Carbamoylbenzyl)-3,5-dimethyl-1H-pyrazol-4-yl)-4-(phenoxymethyl)benzamide] | > 100 | > 100
CNC(=O)c1cccc(Cn2nc(C)c(NC(=O)c3ccc(COc4ccccc4)cc3)c2C)c1 [Compound A3b, 3-((3,5-Dimethyl-4-(4-(phenoxymethyl)benzamido)-1H-pyrazol-1-yl)methyl)-N-methylbenzamide] | 6.2 | 5.2

Second part, the compound after the results:

EC50 (MIA PaCa-2 cells) [µM] | EC50 (Panc-1 cells) [µM] | Compound
6.2 | 6.2 | CNC(=O)c1cccc(Cn2nc(C)c(NC(=O)c3ccc(COc4cccc(OC)c4)cc3)c2C)c1 [Compound D4b, 3-((4-(4-((3-Methoxyphenoxy)methyl)benzamido)-3,5-dimethyl-1H-pyrazol-1-yl)methyl)-N-methylbenzamide]
8.5 | 25 | CNC(=O)c1cccc(Cn2nc(C)c(NC(=O)c3ccc(COc4ccccc4OC)cc3)c2C)c1 [Compound D4a, 3-((4-(4-((2-Methoxyphenoxy)methyl)benzamido)-3,5-dimethyl-1H-pyrazol-1-yl)methyl)-N-methylbenzamide]
10 | 0.44 | CNC(=O)c1cccc(Cn2nc(C)c(NC(=O)c3ccc(COc4ccccc4C(F)(F)F)cc3)c2C)c1 [Compound D9a, 3-((3,5-Dimethyl-4-(4-((2-(trifluoromethyl)phenoxy)methyl)benzamido)-1H-pyrazol-1-yl)methyl)-N-methylbenzamide]
8 | 48 | CNC(=O)c1cccc(Cn2nc(C)c(NC(=O)c3ccc(COc4ccc(OC)cc4)cc3)c2C)c1 [Compound D4c, 3-((4-(4-((4-Methoxyphenoxy)methyl)benzamido)-3,5-dimethyl-1H-pyrazol-1-yl)methyl)-N-methylbenzamide]
2.3 | 0.76 | CNC(=O)c1cccc(Cn2nc(C)c(NC(=O)c3ccc(COc4cccc(C(F)(F)F)c4)cc3)c2C)c1 [Compound D9b, 3-((3,5-Dimethyl-4-(4-((3-(trifluoromethyl)phenoxy)-methyl)benzamido)-1H-pyrazol-1-yl)methyl)-N-methylbenzamide]
4.2 | 2 | CNC(=O)c1cccc(Cn2nc(C)c(NC(=O)c3ccc(COc4ccc(Cl)cc4)cc3)c2C)c1 [Compound D5c, 3-((4-(4-((4-Chlorophenoxy)methyl)benzamido)-3,5-dimethyl-1H-pyrazol-1-yl)methyl)-N-methylbenzamide]
2.1 | 0.61 | CNC(=O)c1cccc(Cn2nc(C)c(NC(=O)c3ccc(COc4ccccc4C)cc3)c2C)c1 [Compound D3a, 3-((3,5-Dimethyl-4-(4-((o-tolyloxy)methyl)benzamido)-1H-pyrazol-1-yl)methyl)-N-methylbenzamide]
6 | 1.3 | CNC(=O)c1cccc(Cn2nc(C)c(NC(=O)c3ccc(COc4cccc5ccccc45)cc3)c2C)c1 [Compound D2, 3-((3,5-Dimethyl-4-(4-((naphthalen-1-yloxy)methyl)benzamido)-1H-pyrazol-1-yl)methyl)-N-methylbenzamide]
5.6 | 22 | CNC(=O)c1cccc(Cn2nc(C)c(NC(=O)c3ccc(COc4ccc(C#N)cc4)cc3)c2C)c1 [Compound D7c, 3-((4-(4-((4-Cyanophenoxy)methyl)benzamido)-3,5-dimethyl-1H-pyrazol-1-yl)methyl)-N-methylbenzamide]
6.3 | 9.9 | CNC(=O)c1cccc(Cn2nc(C)c(NC(=O)c3ccc(COc4ccccc4Cl)cc3)c2C)c1 [Compound D5a, 3-((4-(4-((2-Chlorophenoxy)methyl)benzamido)-3,5-dimethyl-1H-pyrazol-1-yl)methyl)-N-methylbenzamide]
